≈ marks a conversion by molar mass, not a printed value. Structures can show the parent of a compound that is named as a salt.
Assays:
[1] = system: Bacteroides fragilis sp. fragilis 107; experiment: Agar dilution susceptibility of anaerobic bacteria (Chart 1); type: cell-based; conditions: Bacteroides fragilis, 24 h, agar dilution, 37° C.; Bacteroides fragilis sp. fragilis 107; read-out: 24 Hr. MIC
[2] = system: Bacteroides melaninogenicus 1856/28; experiment: as above; type: cell-based; conditions: agar dilution, 37° C., Bacteroides melaninogenicus 1856/28; for MIC: Prevotella intermedia, 1856/28, 24 h, read-out: 24 Hr. MIC
[3] = system: Clostridium perfringens 81; experiment: microbe, parasite or virus in culture; type: cell-based; conditions: for MIC: Clostridium perfringens, 81, 24 h, read-out: 24 Hr. MIC, agar dilution, 37° C.; for 24 Hr. MIC: agar dilution, 37° C.
[4] = system: Bacteroides fragilis sp. fragilis 106; experiment: Agar dilution susceptibility of anaerobic bacteria (Chart 1); type: cell-based; conditions: agar dilution, 37° C., Bacteroides fragilis sp. fragilis 106; for MIC: Bacteroides fragilis, 24 h, read-out: 24 Hr. MIC
[5] = system: Bacteroides fragilis sp. fragilis 2; experiment: as above; type: cell-based; conditions: Bacteroides fragilis, 24 h, agar dilution, 37° C.; Bacteroides fragilis sp. fragilis 2; read-out: 24 Hr. MIC
[6] = system: Fusobacterium symbiosum 1470; experiment: as above; type: cell-based; conditions: agar dilution, 37° C., Fusobacterium symbiosum 1470; for MIC: Fusobacterium, 1470, 24 h, read-out: 24 Hr. MIC
[7] = system: Bacteroides fragilis sp. fragilis 103; experiment: as above; type: cell-based; conditions: agar dilution, 37° C., Bacteroides fragilis sp. fragilis 103; for MIC: Bacteroides fragilis, 24 h, read-out: 24 Hr. MIC
Peptococcus prevoti 1281 = experiment: as above; type: cell-based; conditions: for MIC: 24 h, read-out: 24 Hr. MIC, agar dilution, 37° C.; for 24 Hr. MIC: agar dilution, 37° C.
[8] = system: Bacteroides fragilis sp. thetaiotaomicron 1900A; experiment: as above; type: cell-based; conditions: agar dilution, 37° C., Bacteroides fragilis sp. thetaiotaomicron 1900A; for MIC: Bacteroides fragilis, 24 h, read-out: 24 Hr. MIC
[9] = system: Bacteroides fragilis sp. fragilis 1874; experiment: as above; type: cell-based; conditions: agar dilution, 37° C., Bacteroides fragilis sp. fragilis 1874; for MIC: Bacteroides fragilis, 24 h, read-out: 24 Hr. MIC
[10] = system: Actinomyces israelii W855; experiment: as above; type: cell-based; conditions: 24 h, agar dilution, 37° C., read-out: 24 Hr. MIC
[11] = system: Bacteroides corrodens 1874; experiment: as above; type: cell-based; conditions: agar dilution, 37° C., Bacteroides corrodens 1874; for MIC: Eikenella corrodens, 1874, 24 h, read-out: 24 Hr. MIC
[12] = system: Bacteroides fragilis sp. fragilis 111; experiment: as above; type: cell-based; conditions: agar dilution, 37° C., Bacteroides fragilis sp. fragilis 111; for MIC: Bacteroides fragilis, 24 h, read-out: 24 Hr. MIC
[13] = system: Bacteroides fragilis sp. fragilis 1451; experiment: as above; type: cell-based; conditions: agar dilution, 37° C., Bacteroides fragilis sp. fragilis 1451; for MIC: Bacteroides fragilis, 24 h, read-out: 24 Hr. MIC
[14] = system: Bacteroides fragilis sp. fragilis 110; experiment: as above; type: cell-based; conditions: agar dilution, 37° C., Bacteroides fragilis sp. fragilis 110; for MIC: Bacteroides fragilis, 24 h, read-out: 24 Hr. MIC
[15] = system: Propionibacterium acnes 79; experiment: as above; type: cell-based; conditions: agar dilution, 37° C., Propionibacterium acnes 79; for MIC: Cutibacterium acnes, 79, 24 h, read-out: 24 Hr. MIC
[16] = system: Peptococcus asaccharolyticus 1302; experiment: as above; type: cell-based; conditions: agar dilution, 37° C., Peptococcus asaccharolyticus 1302; for MIC: Peptoniphilus asaccharolyticus, 1302, 24 h, read-out: 24 Hr. MIC
[17] = system: Bacteroides fragilis sp. thetaiotaomicron 1438; experiment: as above; type: cell-based; conditions: agar dilution, 37° C., Bacteroides fragilis sp. thetaiotaomicron 1438; for MIC: Bacteroides fragilis, 24 h, read-out: 24 Hr. MIC
Salmonella typhimurium = experiment: Control of infections caused by Salmonella typhimurium in chickens (Chart 2); type: in vivo; conditions: 60 mg./kg. subcutaneous, day-old chicks, 5 per group, 6 days observation
Procedure: The efficacy of the novel compounds in the control of infections caused by Salmonella typhimurium in chickens was evaluated in the following manner. The test was carried out using day-old chicks weighing approximately 35 g. each. The chicks were divided into groups of 5 chicks per each dosage level. A portion of the chicks received the test compound which was suspended in 0.2 ml. of polyethylene glycol 200 and administered subcutaneously in the neck. […] All the chicks were challenged with a 1:200 dilution of a culture of the organism, 0.1 ml. of the dilution being injected into each chick in the leg intramuscularly. […] The test compounds are identified in the same manner as set forth in experiment 1. In the chart, column 1 lists the compounds tested; column 2, the dosage of test compound in mg./kg.; and column 3, the survival ratio.

Row | Structure (SMILES) | MIC [1] | MIC [2] | MIC [3] | MIC [4] | MIC [5] | MIC [6] | MIC [7] | MIC (Peptococcus prevoti 1281) | MIC [8] | MIC [9] | MIC [10] | MIC [11] | MIC [12] | MIC [13] | MIC [14] | MIC [15] | MIC [16] | MIC [17] | Survival Ratio (Salmonella typhimurium) | 24 Hr. MIC [16] | also measured
1 | CCC[C@@H]1C[C@@H](C(=O)N[C@@H]([C@H]2O[C@H](SC)[C@H](O)[C@@H](O)[C@H]2O)[C@H](C)Cl)N(C)C1 [C, clindamycin, reference compound] | 0.25 µg/mL (≈ 0.588 µM) | ≤ 0.5 µg/mL | 4 µg/mL (≈ 9.41 µM) | 0.125 µg/mL (≈ 0.294 µM) | 0.25 µg/mL (≈ 0.588 µM) | ≤ 0.5 µg/mL | ≤ 0.06 µg/mL | 32 µg/mL (≈ 75.3 µM) | 4 µg/mL (≈ 9.41 µM) | ≤ 0.06 µg/mL | ≤ 0.5 µg/mL | ≤ 0.5 µg/mL | 1 µg/mL (≈ 2.35 µM) | 1 µg/mL (≈ 2.35 µM) | 0.125 µg/mL (≈ 0.294 µM) | ≤ 0.5 µg/mL | ≤ 0.5 µg/mL | 0.5 µg/mL (≈ 1.18 µM) | – | – | –
2 | CCOC(=O)C(=O)Nc1c(C#N)c(-c2ncc([N+](=O)[O-])n2C)nn1C [Example 1, N-[4-Cyano-1-methyl-3-(1-methyl-5-nitroimidazol-2-yl)pyrazol-5-yl]oxamic acid, ethyl ester] | 0.25 µg/mL (≈ 0.72 µM) | – | 0.5 µg/mL (≈ 1.44 µM) | 0.125 µg/mL (≈ 0.36 µM) | 0.25 µg/mL (≈ 0.72 µM) | ≤ 0.25 µg/mL | – | ≤ 0.25 µg/mL | 0.25 µg/mL (≈ 0.72 µM) | – | > 64 µg/mL | ≤ 0.25 µg/mL | 0.125 µg/mL (≈ 0.36 µM) | 0.25 µg/mL (≈ 0.72 µM) | 0.25 µg/mL (≈ 0.72 µM) | 32 µg/mL (≈ 92.1 µM) | – | 0.25 µg/mL (≈ 0.72 µM) | 4/5 | 1.0 µg/mL | 24 Hr. MIC [2]: 16 µg/mL; 24 Hr. MIC [7]: ≤ 0.03 µg/mL; 24 Hr. MIC [9]: 0.06 µg/mL
3 | CCOC(=O)C(=O)Nc1c(C#N)c(-c2ncc([N+](=O)[O-])n2C)nn1C [Example 2, N-[4-Cyano-1-methyl-3-(1-methyl-5-nitroimidazol-2-yl)pyrazol-5-yl]oxamic acid, ethyl ester, sodium salt] | – | – | – | – | – | – | – | – | – | – | – | – | – | – | – | – | – | – | – | – | 24 Hr. MIC ([2]; sodium salt): 16 µg/mL; 24 Hr. MIC ([3]; sodium salt): ≤ 0.25 µg/mL; 24 Hr. MIC ([4]; sodium salt): 0.25 µg/mL; 24 Hr. MIC ([6]; sodium salt): ≤ 0.25 µg/mL; 24 Hr. MIC ([7]; sodium salt): 0.125 µg/mL; 24 Hr. MIC (Peptococcus prevoti 1281; sodium salt): 0.5 µg/mL; Survival Ratio (Salmonella typhimurium; sodium salt): 2/5; 24 Hr. MIC ([8]; sodium salt): 0.25 µg/mL; 24 Hr. MIC ([9]; sodium salt): 0.25 µg/mL; 24 Hr. MIC ([11]; sodium salt): ≤ 0.25 µg/mL; 24 Hr. MIC ([12]; sodium salt): 0.25 µg/mL; 24 Hr. MIC ([14]; sodium salt): 0.25 µg/mL; 24 Hr. MIC ([15]; sodium salt): > 64 µg/mL; 24 Hr. MIC ([16]; sodium salt): ≤ 0.25 µg/mL; 24 Hr. MIC ([17]; sodium salt): 0.25 µg/mL
4 | Cn1nc(-c2ncc([N+](=O)[O-])n2C)c(C#N)c1NC(=O)C(=O)NN [Example 6, 5-[4-Cyano-1-methyl-3-(1-methyl-5-nitroimidazol-2-yl)pyrazol5-yl]semioxamazide] | 0.5 µg/mL (≈ 1.5 µM) | 8 µg/mL (≈ 24 µM) | – | 0.25 µg/mL (≈ 0.75 µM) | 0.25 µg/mL (≈ 0.75 µM) | ≤ 0.25 µg/mL | 0.06 µg/mL (≈ 0.18 µM) | – | 0.25 µg/mL (≈ 0.75 µM) | 0.25 µg/mL (≈ 0.75 µM) | > 64 µg/mL | – | 0.25 µg/mL (≈ 0.75 µM) | 0.5 µg/mL (≈ 1.5 µM) | 0.5 µg/mL (≈ 1.5 µM) | 32 µg/mL (≈ 96 µM) | – | 1 µg/mL (≈ 3 µM) | 5/5 | ≤ 0.25 µg/mL | 24 Hr. MIC [3]: 0.5 µg/mL; 24 Hr. MIC (Peptococcus prevoti 1281): 0.5 µg/mL; 24 Hr. MIC [11]: ≤ 0.25 µg/mL
5 | Cn1nc(-c2ncc([N+](=O)[O-])n2C)c(C#N)c1NC(=O)C(=O)c1ccccc1 [Example 10, N-[4-cyano-1-methyl-3-(1-methyl-5-nitroimidazol-2-yl)pyrazol-5-yl]-2-phenylglyoxylamide] | ≤ 0.03 µg/mL | 32 µg/mL (≈ 84.4 µM) | 1 µg/mL (≈ 2.64 µM) | ≤ 0.03 µg/mL | ≤ 0.03 µg/mL | ≤ 0.03 µg/mL | ≤ 0.03 µg/mL | – | – | ≤ 0.03 µg/mL | > 64 µg/mL | – | ≤ 0.03 µg/mL | – | ≤ 0.03 µg/mL | 64 µg/mL (≈ 169 µM) | 1 µg/mL (≈ 2.64 µM) | – | – | – | 24 Hr. MIC (Peptococcus prevoti 1281): 16 µg/mL; 24 Hr. MIC [8]: ≤ 0.03 µg/mL; 24 Hr. MIC [11]: 1.0 µg/mL; 24 Hr. MIC [13]: ≤ 0.03 µg/mL; 24 Hr. MIC [17]: ≤ 0.03 µg/mL
